# Measurements: BindingDB's records for patent US11648254 (Kumquat Biosciences, 2023)
# Molecular target: T1, Son of sevenless homolog 1 (Homo sapiens, UniProt Q07889)
# T1 sequence (Q07889 whole entry): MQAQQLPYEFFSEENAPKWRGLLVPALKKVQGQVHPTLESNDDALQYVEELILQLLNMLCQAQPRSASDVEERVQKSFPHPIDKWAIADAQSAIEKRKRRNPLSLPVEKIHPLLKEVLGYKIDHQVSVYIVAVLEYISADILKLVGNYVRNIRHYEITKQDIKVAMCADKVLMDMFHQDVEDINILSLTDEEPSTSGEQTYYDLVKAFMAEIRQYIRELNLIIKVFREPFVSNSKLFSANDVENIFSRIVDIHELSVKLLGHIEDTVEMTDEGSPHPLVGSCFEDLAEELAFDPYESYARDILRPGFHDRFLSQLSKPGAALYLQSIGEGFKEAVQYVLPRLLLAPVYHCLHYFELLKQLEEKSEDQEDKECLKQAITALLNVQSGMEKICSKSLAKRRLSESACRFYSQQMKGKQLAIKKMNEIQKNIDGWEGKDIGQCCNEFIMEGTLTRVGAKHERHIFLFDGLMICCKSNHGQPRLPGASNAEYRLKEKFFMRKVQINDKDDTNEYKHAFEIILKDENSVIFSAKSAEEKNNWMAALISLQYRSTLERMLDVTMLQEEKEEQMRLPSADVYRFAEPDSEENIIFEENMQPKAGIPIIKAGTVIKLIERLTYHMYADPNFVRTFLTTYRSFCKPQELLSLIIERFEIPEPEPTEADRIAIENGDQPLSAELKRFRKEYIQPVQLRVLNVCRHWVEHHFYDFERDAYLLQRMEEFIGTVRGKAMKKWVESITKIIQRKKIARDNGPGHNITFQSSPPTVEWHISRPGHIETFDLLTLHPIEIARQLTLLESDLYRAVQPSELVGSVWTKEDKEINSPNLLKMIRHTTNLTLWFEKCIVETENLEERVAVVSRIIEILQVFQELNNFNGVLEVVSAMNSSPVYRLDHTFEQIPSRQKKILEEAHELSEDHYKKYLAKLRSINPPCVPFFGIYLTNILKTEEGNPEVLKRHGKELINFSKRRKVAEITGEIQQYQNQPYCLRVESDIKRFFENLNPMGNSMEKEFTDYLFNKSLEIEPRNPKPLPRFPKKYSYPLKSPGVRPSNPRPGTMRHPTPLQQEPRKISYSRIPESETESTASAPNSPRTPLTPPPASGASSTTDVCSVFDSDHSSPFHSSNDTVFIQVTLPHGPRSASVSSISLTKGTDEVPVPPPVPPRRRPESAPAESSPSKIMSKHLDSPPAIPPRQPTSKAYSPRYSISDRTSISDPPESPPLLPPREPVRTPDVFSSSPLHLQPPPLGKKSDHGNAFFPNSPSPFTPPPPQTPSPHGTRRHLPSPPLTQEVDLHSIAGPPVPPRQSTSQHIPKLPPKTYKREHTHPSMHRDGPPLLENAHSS
# Test: Ras-SOS Interaction Assay
# From the text: The ability of any compound of the present disclosure to reduce a Ras protein signaling output by, e.g., interfering or disrupting interaction (or binding) between SOS1 and a Ras protein can be assessed in vitro. For example, the equilibrium interaction of human SOS1 (hSOS1) with human wildtype Kras or K-Ras mutant (e.g., hK-Ras G12C mutant, or hK-RasG12C) can be assessed as a proxy or an indication for a subject compound's ability to inhibit SOS. Detection of such interaction is achieved by measuring homogenous time-resolved fluorescence resonance energy transfer (HTRF) from (i) a fluorescence resonance energy transfer (FRET) donor (e.g., antiGST-Europium) that is bound to GST-tagged K-RasG12C to (ii) a FRET acceptor (e.g., anti-6His-XL665) bound to a His-tagged hSOS1. […] A Ras working solution is prepared in assay buffer containing typically 10 nM of the protein construct (e.g., GST-tagged hK-RasG12C) and 2 nM of the FRET donor (e.g., antiGST-Eu(K) from Cisbio, France). A SOS1 working solution is prepared in assay buffer containing typically 10 nM of the protein construct (e.g., His-hSOS1) and 10 nM of the FRET acceptor (e.g., anti-6His-XL665 from Cisbio, France). An inhibitor control solution is prepared in assay buffer containing 10 nM of the FRET acceptor without the SOS1 protein. A fixed reaction mixture with or without test compound is transferred into a 384-well plate. Ras working solution is added to all wells of the test plate. SOS1 working solution is added to all wells except for those that are subsequently filled the inhibitor control solution.
row,IC50 [nM],Compound
1,< 100,"COc1nc2nc(C)nc(N[C@H](C)c3cccc(C(F)(F)F)c3C)c2cc1C1CCS(=O)(=O)CC1 [US11648254, Compound 118]"
2,< 100,"COc1nc2nc(C)nc(N[C@H](C)c3cccc(C(C)(F)F)c3F)c2cc1C1CCS(=O)(=O)CC1 [US11648254, Compound 150]"
3,< 100,"COCCOc1nc2nc(C)nc(N[C@H](C)c3cccc(C(F)F)c3F)c2cc1C1(C#N)CC1 [US11648254, Compound 151]"
4,< 100,"Cc1nc(N[C@H](C)c2cccc(C(F)F)c2F)c2cc(C3(C#N)CC3)c(O[C@H]3CCOC3)nc2n1 [US11648254, Compound 297]"
5,< 100,"COc1nc2nc(C)nc(N[C@H](C)c3cccc(C(F)(F)C4CCN(C(C)C)CC4)c3F)c2cc1C1(C#N)CC1 [US11648254, Compound 377]"
6,< 100,"COc1nc2ncnc(N[C@H](C)c3cccc(C(F)(F)F)c3C)c2cc1C1CCN(C2CCOCC2)CC1 [US11648254, Compound 374]"
7,< 100,"Cc1nc(N[C@H](C)c2cccc(C(F)F)c2F)c2cc(S(=O)(=O)C3CCN(C)CC3)c(Cl)nc2n1 [US11648254, Compound 132]"
8,< 100,"COc1nc2nc(C)nc(N[C@H](C)c3cccc(C(F)(F)C4CN(C)C4)c3)c2cc1N1CCS(=O)(=O)CC1 [US11648254, Compound 272]"
9,< 100,"COc1nc2ncnc(N[C@H](C)c3cccc(C(F)(F)F)c3C)c2cc1C1CCS(=O)(=O)CC1 [US11648254, Compound 373]"
10,< 100,"COc1nc2nc(C)nc(N[C@H](C)c3cccc(C(F)F)c3F)c2cc1[C@H]1C[C@@H](NC(=O)C2COC2)C1 [US11648254, Compound 125]"
11,< 100,"COc1nc2nc(C)nc(N[C@H](C)c3cccc(C(F)F)c3F)c2cc1C1CCN(C(=O)NC2COC2)CC1 [US11648254, Compound 116]"
12,< 100,"COc1nc2nc(C)nc(N[C@H](C)c3cccc(C(F)(F)C4CCCO4)c3F)c2cc1C1CCS(=O)(=O)CC1 (some centres not stated) [US11648254, Compound 148]"
